Results reported in patent US20190230932A1, “Synergistic Combinations Of Monochloramine And Organic Acid, And Methods Of Using The Same For Microbial Control” (Buckman Laboratories International, Inc., priority 2018, published 2019).

Tests used:
[1] = test system: Pseudomonas bacterial cells; assay: Checkerboard of monochloramine and citric acid, OD 600 nm growth curves over 48 hours (Example 2, FIGS. 2-5); type: cell-based
Procedure: In this study, Pseudomonas bacterial cells were grown in nutrient broth media. The nutrient broth media comprised corn mash (35 wt %) and water. Appropriate amount of culture cells, monochloramine and/or citric acid were transferred into 24-well plate and incubated at 37° C. for 48 hrs. in a plate reader. The 24-well plate layout held samples which contained monochloramine added in concentrations (ppm) of 0, 12.5, 50 and 100 ppm in different rows of well samples, and citric acid added in concentrations (ppm) of 0, 500, 3,000, 7,000, 10,000, and 20,000 in different columns of well samples, in a checkerboard pattern. Bacterial growth was monitored for each sample using a UV-VIS spectrophotometer to measure optical density (OD) (at measurement wavelength 600 nm) for the samples for 48 hours. The growth curves from the data are plotted in FIGS. 2-5.

[2] = test system: Pseudomonas bacterial cells; assay: Checkerboard of monochloramine and citric acid, bacterial growth in corn mash nutrient broth, 24-well plate (Example 1); for Bacterial growth at 12 hr.: key: −−−: No further growth observed; +++: Growth observed; type: cell-based; design: Bacterial growth at 12 hr. / Bacterial growth at 14 hr.: key: −−−: No further growth observed; +++: Growth observed; conditions: for Bacterial growth at 12 hr. / Bacterial growth at 14 hr.: 37° C., 600 nm
Procedure: Laboratory experiments were performed to study the microbicidal efficacy of a combination of monochloramine with citric acid.
Pseudomonas bacterial cells were grown in nutrient broth media. The nutrient broth media comprised corn mash (35 wt %) and water. Appropriate amount of culture cells, monochloramine and/or citric acid were transferred into 24-well plate and incubated at 37° C. The 24-well plate layout held samples which contained monochloramine added in concentrations (ppm) of 0.00, 12.50, 50.00 and 100.00 in different rows of well samples, […], in different columns of well samples, in a checkerboard pattern, such as shown in Tables 1 and 2. Bacterial growth was monitored for each sample at 12 hours and 14 hours. Measurement was qualitative based upon measurement in a plate reader. A UV-VIS spectrophotometer was used at measurement wavelength 600 nm.

## NCl [Oxamine (MCA), monochloramine]
[1]; 12.5 ppm monochloramine alone, FIG. 3
  control of bacteria growth (OD 600 nm growth curve): no control of bacteria growth
[1]; 50 ppm monochloramine alone, FIG. 4
  control of bacteria growth (OD 600 nm growth curve): cells growth was delayed
[1]; 100 ppm monochloramine without citric acid, FIG. 5
  control of bacteria growth (OD 600 nm growth curve): total inhibition of bacteria growth
[2]; 50 ppm monochloramine added individually
  inhibition of bacterial growth: not inhibitory to bacterial growth
[2]; 100 ppm MCA alone
  control of bacterial growth: sufficient to control
[2]; MCA 12.5 ppm, CA 0 ppm
  Bacterial growth at 12 hr.: +++
  Bacterial growth at 14 hr.: +++
[2]; MCA 50 ppm, CA 0 ppm
  Bacterial growth at 12 hr.: +++
  Bacterial growth at 14 hr.: +++

## O=C(O)CC(O)(CC(=O)O)C(=O)O [Citric acid (CA), citric acid]
[1]; citric acid alone, 500 to 20,000 ppm, no MCA, FIG. 2
  control of bacteria growth (OD 600 nm growth curve): not all of the evaluated citric acid concentrations controlled bacteria growth
[2]; 10,000 ppm citric acid added individually (no MCA)
  inhibition of bacterial growth: not inhibitory to bacterial growth
[2]; MCA 0 ppm, CA 500 ppm
  Bacterial growth at 12 hr.: +++
  Bacterial growth at 14 hr.: +++
[2]; MCA 0 ppm, CA 1000 ppm
  Bacterial growth at 12 hr.: +++
  Bacterial growth at 14 hr.: +++
[2]; MCA 0 ppm, CA 3000 ppm
  Bacterial growth at 12 hr.: +++
  Bacterial growth at 14 hr.: +++
[2]; MCA 0 ppm, CA 7000 ppm
  Bacterial growth at 12 hr.: +++
  Bacterial growth at 14 hr.: +++
[2]; MCA 0 ppm, CA 10000 ppm
  Bacterial growth at 12 hr.: +++
  Bacterial growth at 14 hr.: +++
